Source: ChEMBL document CHEMBL1743141, “Membrane transporters in drug development” (Nat Rev Drug Discov, 2010)

How the values were obtained:
Format in all cases: ADME
[1] = molecular target: ATP-binding cassette sub-family C member 2 (Homo sapiens, UniProt Q92887); experiment: Substrates of transporters of clinical importance in the absorption and disposition of drugs, MRP2
[2] = molecular target: T1, Solute carrier organic anion transporter family member 1B3 (Homo sapiens, UniProt Q9NPD5); experiment: Substrates of transporters of clinical importance in the absorption and disposition of drugs, OATP1B3
T1 sequence (Q9NPD5 whole entry): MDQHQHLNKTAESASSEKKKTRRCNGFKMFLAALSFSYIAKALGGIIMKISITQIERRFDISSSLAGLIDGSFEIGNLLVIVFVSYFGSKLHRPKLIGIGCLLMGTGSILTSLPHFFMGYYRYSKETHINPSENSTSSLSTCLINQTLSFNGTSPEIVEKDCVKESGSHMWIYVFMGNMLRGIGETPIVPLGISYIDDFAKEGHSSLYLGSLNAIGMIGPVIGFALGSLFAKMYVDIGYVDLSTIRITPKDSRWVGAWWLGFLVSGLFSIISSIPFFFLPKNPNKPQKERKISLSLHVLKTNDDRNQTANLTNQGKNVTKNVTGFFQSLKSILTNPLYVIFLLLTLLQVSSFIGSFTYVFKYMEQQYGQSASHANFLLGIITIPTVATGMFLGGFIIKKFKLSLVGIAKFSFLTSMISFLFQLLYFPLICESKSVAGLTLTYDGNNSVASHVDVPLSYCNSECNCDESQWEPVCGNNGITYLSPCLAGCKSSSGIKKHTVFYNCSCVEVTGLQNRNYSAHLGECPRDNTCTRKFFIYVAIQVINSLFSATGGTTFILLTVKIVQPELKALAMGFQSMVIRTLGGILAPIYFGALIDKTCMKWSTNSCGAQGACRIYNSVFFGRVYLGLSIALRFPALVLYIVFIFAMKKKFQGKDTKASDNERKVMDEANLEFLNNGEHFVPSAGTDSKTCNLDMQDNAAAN

[3] = molecular target: T2, Solute carrier organic anion transporter family member 1B1 (Homo sapiens, UniProt Q9Y6L6); experiment: Substrates of transporters of clinical importance in the absorption and disposition of drugs, OATP1B1
T2 sequence (Q9Y6L6 whole entry): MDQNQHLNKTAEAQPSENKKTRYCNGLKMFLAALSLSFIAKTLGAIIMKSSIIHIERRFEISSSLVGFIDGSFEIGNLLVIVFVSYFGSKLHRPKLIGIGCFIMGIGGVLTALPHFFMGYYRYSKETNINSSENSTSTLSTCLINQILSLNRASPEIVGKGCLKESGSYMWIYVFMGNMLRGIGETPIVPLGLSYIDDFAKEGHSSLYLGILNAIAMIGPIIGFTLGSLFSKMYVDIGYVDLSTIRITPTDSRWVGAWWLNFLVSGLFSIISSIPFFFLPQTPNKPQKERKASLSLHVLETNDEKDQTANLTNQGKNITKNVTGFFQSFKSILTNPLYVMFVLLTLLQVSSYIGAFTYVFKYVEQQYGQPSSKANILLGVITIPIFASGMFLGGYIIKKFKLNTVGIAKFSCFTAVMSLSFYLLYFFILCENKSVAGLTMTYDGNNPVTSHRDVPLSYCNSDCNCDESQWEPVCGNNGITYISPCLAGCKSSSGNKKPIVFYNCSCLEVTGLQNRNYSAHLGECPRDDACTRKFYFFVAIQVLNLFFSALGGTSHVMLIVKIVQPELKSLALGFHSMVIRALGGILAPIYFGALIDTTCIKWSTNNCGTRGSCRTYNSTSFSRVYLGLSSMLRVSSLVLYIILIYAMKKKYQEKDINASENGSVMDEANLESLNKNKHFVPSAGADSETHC

[4] = molecular target: T3, ATP-binding cassette sub-family C member 4 (Homo sapiens, UniProt O15439); experiment: Substrates of transporters of clinical importance in the absorption and disposition of drugs, MRP4
T3 sequence (O15439 whole entry): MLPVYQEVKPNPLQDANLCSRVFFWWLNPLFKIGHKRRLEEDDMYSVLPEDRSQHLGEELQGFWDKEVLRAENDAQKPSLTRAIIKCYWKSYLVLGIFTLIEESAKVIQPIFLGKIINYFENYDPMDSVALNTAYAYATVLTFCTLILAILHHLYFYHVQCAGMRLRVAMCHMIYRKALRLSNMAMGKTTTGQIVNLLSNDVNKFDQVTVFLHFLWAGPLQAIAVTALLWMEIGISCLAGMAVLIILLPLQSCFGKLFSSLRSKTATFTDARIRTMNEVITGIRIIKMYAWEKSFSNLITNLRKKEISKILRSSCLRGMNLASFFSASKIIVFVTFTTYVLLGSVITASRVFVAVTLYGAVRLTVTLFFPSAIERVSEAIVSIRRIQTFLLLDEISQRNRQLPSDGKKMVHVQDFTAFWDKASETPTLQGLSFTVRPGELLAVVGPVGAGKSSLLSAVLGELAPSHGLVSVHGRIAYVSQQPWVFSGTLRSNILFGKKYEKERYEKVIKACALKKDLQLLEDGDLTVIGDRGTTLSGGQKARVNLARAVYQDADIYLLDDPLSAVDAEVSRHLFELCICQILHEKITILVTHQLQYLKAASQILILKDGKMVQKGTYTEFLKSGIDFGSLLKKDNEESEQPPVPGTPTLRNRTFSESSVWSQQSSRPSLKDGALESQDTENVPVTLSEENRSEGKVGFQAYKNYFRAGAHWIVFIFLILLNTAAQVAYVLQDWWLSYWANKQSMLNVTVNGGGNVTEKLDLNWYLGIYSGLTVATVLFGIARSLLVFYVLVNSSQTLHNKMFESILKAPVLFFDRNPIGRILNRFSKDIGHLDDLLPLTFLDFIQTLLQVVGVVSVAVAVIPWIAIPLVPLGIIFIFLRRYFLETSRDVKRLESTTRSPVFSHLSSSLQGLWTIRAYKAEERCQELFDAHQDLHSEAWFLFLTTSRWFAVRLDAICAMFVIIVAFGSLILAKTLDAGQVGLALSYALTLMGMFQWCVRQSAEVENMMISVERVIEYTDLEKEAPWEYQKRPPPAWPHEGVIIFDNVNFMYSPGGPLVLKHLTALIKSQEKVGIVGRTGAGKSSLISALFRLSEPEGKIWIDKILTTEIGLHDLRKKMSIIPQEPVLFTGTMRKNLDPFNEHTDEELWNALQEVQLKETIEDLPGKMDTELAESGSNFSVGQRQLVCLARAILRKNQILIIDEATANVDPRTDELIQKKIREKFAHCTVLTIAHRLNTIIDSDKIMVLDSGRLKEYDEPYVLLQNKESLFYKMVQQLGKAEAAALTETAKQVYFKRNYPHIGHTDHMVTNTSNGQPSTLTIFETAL

[5] = molecular target: ATP-dependent translocase ABCB1 (Homo sapiens, UniProt P08183); experiment: Substrates of transporters of clinical importance in the absorption and disposition of drugs, MDR1
[6] = molecular target: T4, Solute carrier organic anion transporter family member 1A2 (Homo sapiens, UniProt P46721); experiment: Substrates of transporters of clinical importance in the absorption and disposition of drugs, OATP1A2
T4 sequence (P46721 whole entry): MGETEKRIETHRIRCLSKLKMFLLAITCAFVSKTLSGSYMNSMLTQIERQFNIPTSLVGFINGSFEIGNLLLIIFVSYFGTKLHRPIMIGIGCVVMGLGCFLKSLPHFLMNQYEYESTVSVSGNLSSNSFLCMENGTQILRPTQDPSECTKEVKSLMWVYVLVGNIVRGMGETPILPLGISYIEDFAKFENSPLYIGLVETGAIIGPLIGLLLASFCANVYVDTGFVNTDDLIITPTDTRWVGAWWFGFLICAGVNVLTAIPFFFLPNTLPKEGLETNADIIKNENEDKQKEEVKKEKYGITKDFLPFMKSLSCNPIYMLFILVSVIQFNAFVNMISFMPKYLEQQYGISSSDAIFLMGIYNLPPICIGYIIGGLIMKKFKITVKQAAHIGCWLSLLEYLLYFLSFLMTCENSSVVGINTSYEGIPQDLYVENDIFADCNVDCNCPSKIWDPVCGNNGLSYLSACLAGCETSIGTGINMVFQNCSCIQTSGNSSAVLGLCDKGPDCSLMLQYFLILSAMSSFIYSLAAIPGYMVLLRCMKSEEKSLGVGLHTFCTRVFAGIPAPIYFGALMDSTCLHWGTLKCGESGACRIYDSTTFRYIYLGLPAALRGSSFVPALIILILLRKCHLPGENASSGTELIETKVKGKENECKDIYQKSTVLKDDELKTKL

[7] = molecular target: T5, Solute carrier family 15 member 1 (Homo sapiens, UniProt P46059); experiment: Substrates of transporters of clinical importance in the absorption and disposition of drugs, PEPT1
T5 sequence (P46059 whole entry): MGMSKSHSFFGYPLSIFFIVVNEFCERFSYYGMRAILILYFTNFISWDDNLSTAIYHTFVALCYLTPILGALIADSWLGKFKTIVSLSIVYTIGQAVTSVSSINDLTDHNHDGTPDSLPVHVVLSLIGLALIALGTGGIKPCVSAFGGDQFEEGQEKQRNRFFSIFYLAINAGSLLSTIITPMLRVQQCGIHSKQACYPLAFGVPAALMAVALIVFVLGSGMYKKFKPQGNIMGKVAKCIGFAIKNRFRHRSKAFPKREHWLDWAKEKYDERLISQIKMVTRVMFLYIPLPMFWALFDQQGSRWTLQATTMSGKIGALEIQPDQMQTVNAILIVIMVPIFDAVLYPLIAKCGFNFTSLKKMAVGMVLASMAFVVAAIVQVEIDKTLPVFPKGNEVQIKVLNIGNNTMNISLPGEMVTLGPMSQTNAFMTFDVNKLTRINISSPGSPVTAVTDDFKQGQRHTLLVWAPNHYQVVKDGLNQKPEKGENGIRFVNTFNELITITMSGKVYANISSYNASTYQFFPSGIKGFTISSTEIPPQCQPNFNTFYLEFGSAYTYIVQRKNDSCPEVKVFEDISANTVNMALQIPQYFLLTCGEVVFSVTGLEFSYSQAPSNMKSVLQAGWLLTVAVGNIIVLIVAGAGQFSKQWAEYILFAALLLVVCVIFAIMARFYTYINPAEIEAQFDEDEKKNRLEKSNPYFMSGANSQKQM

[8] = molecular target: T6, Solute carrier family 15 member 2 (Homo sapiens, UniProt Q16348); experiment: Substrates of transporters of clinical importance in the absorption and disposition of drugs, PEPT2
T6 sequence (Q16348 whole entry): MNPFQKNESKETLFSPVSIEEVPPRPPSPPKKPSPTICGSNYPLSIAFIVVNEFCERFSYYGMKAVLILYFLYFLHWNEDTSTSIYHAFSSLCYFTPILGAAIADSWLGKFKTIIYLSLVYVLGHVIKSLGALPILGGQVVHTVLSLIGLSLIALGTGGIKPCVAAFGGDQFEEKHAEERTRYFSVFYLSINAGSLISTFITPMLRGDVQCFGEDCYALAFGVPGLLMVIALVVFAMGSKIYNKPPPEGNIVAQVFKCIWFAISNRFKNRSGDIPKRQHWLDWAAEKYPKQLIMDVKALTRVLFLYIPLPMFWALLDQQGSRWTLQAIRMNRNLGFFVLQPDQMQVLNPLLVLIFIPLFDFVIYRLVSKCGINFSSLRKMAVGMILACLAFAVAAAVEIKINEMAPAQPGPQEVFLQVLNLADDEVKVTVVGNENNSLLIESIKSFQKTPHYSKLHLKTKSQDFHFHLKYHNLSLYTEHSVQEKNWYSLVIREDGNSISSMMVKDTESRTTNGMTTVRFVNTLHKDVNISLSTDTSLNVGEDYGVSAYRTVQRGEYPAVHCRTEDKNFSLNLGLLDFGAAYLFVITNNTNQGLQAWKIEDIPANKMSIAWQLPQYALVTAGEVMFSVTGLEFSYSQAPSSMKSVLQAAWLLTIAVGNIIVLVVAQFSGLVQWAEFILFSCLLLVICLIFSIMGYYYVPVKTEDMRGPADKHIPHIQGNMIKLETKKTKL

Chain of ATP-dependent translocase ABCB1 (P08183 whole entry): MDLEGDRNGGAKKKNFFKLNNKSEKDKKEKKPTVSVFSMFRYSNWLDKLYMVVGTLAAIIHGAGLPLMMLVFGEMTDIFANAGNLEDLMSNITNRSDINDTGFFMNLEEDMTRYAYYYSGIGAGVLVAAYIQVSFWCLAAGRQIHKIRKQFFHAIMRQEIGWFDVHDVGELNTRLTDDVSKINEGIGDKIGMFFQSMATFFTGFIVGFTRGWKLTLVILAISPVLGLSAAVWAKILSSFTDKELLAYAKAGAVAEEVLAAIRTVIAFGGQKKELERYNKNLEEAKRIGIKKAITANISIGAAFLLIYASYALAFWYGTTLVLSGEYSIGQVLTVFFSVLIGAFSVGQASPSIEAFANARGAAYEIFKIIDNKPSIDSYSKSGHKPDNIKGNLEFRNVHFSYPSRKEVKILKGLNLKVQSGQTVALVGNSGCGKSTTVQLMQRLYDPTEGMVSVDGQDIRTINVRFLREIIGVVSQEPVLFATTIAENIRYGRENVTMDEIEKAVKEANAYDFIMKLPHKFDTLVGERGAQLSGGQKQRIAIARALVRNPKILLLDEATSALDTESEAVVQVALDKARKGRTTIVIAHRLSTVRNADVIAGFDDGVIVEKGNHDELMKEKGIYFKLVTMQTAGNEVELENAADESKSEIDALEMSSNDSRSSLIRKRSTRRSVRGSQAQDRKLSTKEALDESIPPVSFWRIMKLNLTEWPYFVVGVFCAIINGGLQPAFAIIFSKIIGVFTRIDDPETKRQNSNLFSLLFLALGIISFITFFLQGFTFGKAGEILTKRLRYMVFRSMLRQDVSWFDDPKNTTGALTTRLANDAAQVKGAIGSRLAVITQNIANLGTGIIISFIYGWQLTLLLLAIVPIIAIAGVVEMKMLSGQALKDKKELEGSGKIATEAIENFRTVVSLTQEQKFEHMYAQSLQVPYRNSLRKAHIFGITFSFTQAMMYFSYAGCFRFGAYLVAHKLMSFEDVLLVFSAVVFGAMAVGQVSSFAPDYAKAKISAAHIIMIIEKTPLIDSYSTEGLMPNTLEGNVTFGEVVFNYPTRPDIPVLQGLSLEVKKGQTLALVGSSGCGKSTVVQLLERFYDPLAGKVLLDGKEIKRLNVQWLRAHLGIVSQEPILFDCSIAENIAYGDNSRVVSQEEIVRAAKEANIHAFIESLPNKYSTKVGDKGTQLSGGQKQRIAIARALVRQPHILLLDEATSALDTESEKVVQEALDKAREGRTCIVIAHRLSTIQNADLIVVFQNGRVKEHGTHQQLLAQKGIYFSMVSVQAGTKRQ
Chain of ATP-binding cassette sub-family C member 2 (Q92887 whole entry): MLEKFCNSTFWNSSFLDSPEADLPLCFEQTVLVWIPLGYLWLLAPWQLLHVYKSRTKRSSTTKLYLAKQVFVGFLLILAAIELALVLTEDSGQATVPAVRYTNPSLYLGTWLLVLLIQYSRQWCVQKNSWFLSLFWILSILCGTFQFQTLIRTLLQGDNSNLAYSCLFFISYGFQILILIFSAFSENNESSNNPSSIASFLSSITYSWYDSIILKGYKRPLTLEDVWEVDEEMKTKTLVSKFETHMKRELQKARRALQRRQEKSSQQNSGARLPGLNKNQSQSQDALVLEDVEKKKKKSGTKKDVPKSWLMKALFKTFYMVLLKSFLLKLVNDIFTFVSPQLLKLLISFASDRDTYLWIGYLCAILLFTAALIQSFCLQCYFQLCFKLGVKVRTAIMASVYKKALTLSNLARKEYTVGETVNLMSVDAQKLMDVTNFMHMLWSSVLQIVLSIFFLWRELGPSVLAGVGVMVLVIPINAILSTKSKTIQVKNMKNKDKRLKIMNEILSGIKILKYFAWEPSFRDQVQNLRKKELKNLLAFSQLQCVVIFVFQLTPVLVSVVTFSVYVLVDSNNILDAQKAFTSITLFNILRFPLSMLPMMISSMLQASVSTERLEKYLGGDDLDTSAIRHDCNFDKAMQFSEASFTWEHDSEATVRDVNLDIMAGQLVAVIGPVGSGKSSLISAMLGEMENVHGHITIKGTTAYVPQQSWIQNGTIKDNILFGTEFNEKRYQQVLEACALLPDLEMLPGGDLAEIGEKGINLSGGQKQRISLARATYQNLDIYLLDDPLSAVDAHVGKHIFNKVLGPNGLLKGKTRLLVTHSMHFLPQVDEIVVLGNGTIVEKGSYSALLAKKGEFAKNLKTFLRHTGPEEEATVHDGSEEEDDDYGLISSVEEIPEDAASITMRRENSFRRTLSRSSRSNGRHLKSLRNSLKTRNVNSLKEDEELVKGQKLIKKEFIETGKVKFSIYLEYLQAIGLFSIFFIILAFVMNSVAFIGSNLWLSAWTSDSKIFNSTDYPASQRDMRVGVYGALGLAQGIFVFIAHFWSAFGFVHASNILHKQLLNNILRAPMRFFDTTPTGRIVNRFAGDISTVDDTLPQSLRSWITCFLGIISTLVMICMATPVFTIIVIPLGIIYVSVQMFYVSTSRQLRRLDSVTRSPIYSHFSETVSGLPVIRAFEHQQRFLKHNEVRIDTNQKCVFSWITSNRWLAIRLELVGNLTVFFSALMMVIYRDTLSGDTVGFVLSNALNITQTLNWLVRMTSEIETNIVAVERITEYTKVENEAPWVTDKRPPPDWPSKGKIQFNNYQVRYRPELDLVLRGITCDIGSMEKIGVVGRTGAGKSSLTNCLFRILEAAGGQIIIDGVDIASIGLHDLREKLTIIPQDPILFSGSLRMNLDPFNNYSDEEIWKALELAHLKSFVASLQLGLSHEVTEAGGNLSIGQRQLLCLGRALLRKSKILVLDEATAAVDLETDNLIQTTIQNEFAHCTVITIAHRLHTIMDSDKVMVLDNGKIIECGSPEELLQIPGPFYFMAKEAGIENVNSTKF

`CCCCC(=O)N(Cc1ccc(-c2ccccc2-c2nnn[nH]2)cc1)[C@H](C(=O)O)C(C)C` was tested, and the Activity [1] was “transporter substrate”, the Activity [2] was “transporter substrate” and the Activity [3] was “transporter substrate”.

For `CCc1c2c(nc3ccc(OC[C@@H]4O[C@H](C(=O)O)[C@@H](O)[C@H](O)[C@H]4O)cc13)-c1cc3c(c(=O)n1C2)COC(=O)[C@]3(O)CC`, the Activity [1] was “transporter substrate”.

With `Nc1nc2c(ncn2[C@@H]2O[C@@H]3COP(=O)(O)O[C@H]3[C@H]2O)c(=O)[nH]1` the Activity [4] was “transporter substrate”.

For `COc1ccc2cc3[n+](cc2c1OC)CCc1cc2c(cc1-3)OCO2.[Cl-]` [BERBERINE CHLORIDE], the Activity [5] was “transporter substrate”.

With `COc1cccc2c1C(=O)c1c(O)c3c(c(O)c1C2=O)C[C@@](O)(C(=O)CO)C[C@@H]3O[C@H]1C[C@H](N)[C@H](O)[C@H](C)O1` [DOXORUBICIN] the Activity [5] was “transporter substrate”.

In the case of `COc1cc([C@@H]2c3cc4c(cc3[C@@H](O[C@@H]3O[C@@H]5CO[C@@H](C)O[C@H]5[C@H](O)[C@H]3O)[C@H]3COC(=O)[C@H]23)OCO4)cc(OC)c1O` [ETOPOSIDE], the Activity [1] is reported as “transporter substrate”.

With `CN(C)C(=O)C(CCN1CCC(O)(c2ccc(Cl)cc2)CC1)(c1ccccc1)c1ccccc1` [LOPERAMIDE] the Activity [5] was “transporter substrate”.

For `CCCc1nc(C(C)(C)O)c(C(=O)O)n1Cc1ccc(-c2ccccc2-c2nnn[nH]2)cc1` [OLMESARTAN], the Activity [1] was “transporter substrate”, the Activity [2] was “transporter substrate” and the Activity [3] was “transporter substrate”.

In the case of `C[C@]12CC[C@H](OS(=O)(=O)O)CC1=CC[C@@H]1[C@@H]2CC[C@]2(C)C(=O)CC[C@@H]12` [PRASTERONE SULFURIC ACID], the Activity [4] is reported as “transporter substrate” and the Activity [6] is reported as “transporter substrate”.

`CC(C)[C@H](N)C(=O)OCCOCn1cnc2c(=O)[nH]c(N)nc21` [VALACYCLOVIR] was tested, and the Activity [7] was “transporter substrate” and the Activity [8] was “transporter substrate”.
